A short description of data set [1]: Plasma exposure in rat CV/R assay. It counts as in vivo. As to conditions: for concentration at 15 min / concentration at 30 min: CD, plasma, iv; for concentration at 15 min / concentration at 30 min / Total [plasma] / Unbound [plasma]: rat, IV infusion; for unbound plasma concentration just prior to death: blood samples taken just prior to death; for Total [plasma] / Unbound [plasma]: just prior to death. From the text:
For in vivo CVR and phrenic nerve activity studies, all raw signals were amplified via general purposed biological amplifier (filter settings DC – 3-5 KhZ) then digitized, calibrated and collected at a minimum of 500 Hz (1000 Hz for ECG and 2000 Hz for cardiac electrograms, and 10 KHz for phrenic nerve activity) using Notocord-HEM data acquisition and analysis software. The raw signal was filtered following acquisition with a bandpass filter set to 200–800 Hz). Vehicle (100% dimethylformamdide, DMF) or compound formulated in the vehicle was administered as a 30-minute IV infusion at 0.0167 μL/g body weight/min. […] Exposure in rats was determined in separate pharmacokinetics experiments where compounds were administered via IV dosing.

Data set [2] addresses Nav1.6 (Homo sapiens, UniProt Q9UQD0). The experiment in a line: PatchXpress automated patch clamp, hyperpolarized-state protocol. As to conditions: for IC50: HEK 293 cells, hyperpolarized protocol. Further details: expressed in transfected cells. It counts as cell-based. The procedure: (§1) Sodium currents were recorded from recombinant Human Embryonic Kidney 293 cell lines stably overexpressing the respective sodium channel type (NaV1.2, 1.5, 1.4, 1.6, 1.7). Recording solutions were comprised of the following (in mM): Internal solution: 30 CsCl, 5 HEPES, 10 EGTA, 120 CsF, 5 NaF, 2 MgCl2, pH = 7.3 with CsOH; External solution 1: 40 NaCl, 120 NMDG, 1 KCl, 0.5 MgCl2, 5 HEPES, 2.7 CaCl2, pH to 7.3 with NaOH, used for NaV1.5 recordings; External solution 2: 150 NaCl, 5 KCl, 2 CaCl2, 1 MgCl2, 10 HEPES, 12 Dextrose, pH 7.3 with NaOH, used for NaV1.7, 1.6, 1.4, and 1.2 recordings.
(§2) Whole-cell currents were recorded from cells stably expressing NaV channels using the PatchXpress 7000A automated patch clamp platform (Molecular Devices, LLC; Sunnyvale, CA). A portable air-conditioning unit was installed on the PatchXpress instruments to maintain the temperature of the headstage at 21°C. Cells were voltage clamped at −60 mV for cell detection and sealing. At the start of each recording, a voltage curve and an inactivation curve was run for each cell to determine the voltage at which 50% of the channels reside in the inactivated state (V0.5 inact). The voltage curve was used to determine if the cell was adequately clamped; cells with currents larger than 10nA or with space clamp issues were not used further.
NaV1.7, NaV1.6, NaV1.4: Compound potency was measured in a hyperpolarized-state protocol where the holding potential for each cell was set to V0.5inact – 20 mV. A pulse train consisting of 7 consecutive double pulses, 8 second hypepolarizing prepulse to −120 mV followed by a test pulse to −10 mV was applied at a frequency of 0.1 Hz. First, vehicle (0.3% DMSO) was added to establish a baseline measurement. Once baseline was established, test compounds were added. Cells were exposed to compound for 5 minutes at 20 mV negative to V0.5inact then exposed to the same hyperpolarized voltage protocol. (no pulsing during compound incubation). A washout was performed to measure recovery of the sodium currents from inhibition.
(§3) Recordings were included for analysis when current amplitude reached steady-state in vehicle, compound inhibition was concentration-dependent and currents recovered during wash-out periods. Raw data from PatchXpress experiments were retrieved from the database and analyzed using the DataXpress 2 software (Molecular Devices).
(§4) At least 3 concentrations (3–9 replicates per concentration) were tested and at least one concentration had to cause 20–80% current inhibition.

For data set [3], the target named is T1, Human NaV1.5 (Homo sapiens, UniProt Q14524).
T1 construct: expressed in transfected cells
T1 sequence (Q14524 whole entry): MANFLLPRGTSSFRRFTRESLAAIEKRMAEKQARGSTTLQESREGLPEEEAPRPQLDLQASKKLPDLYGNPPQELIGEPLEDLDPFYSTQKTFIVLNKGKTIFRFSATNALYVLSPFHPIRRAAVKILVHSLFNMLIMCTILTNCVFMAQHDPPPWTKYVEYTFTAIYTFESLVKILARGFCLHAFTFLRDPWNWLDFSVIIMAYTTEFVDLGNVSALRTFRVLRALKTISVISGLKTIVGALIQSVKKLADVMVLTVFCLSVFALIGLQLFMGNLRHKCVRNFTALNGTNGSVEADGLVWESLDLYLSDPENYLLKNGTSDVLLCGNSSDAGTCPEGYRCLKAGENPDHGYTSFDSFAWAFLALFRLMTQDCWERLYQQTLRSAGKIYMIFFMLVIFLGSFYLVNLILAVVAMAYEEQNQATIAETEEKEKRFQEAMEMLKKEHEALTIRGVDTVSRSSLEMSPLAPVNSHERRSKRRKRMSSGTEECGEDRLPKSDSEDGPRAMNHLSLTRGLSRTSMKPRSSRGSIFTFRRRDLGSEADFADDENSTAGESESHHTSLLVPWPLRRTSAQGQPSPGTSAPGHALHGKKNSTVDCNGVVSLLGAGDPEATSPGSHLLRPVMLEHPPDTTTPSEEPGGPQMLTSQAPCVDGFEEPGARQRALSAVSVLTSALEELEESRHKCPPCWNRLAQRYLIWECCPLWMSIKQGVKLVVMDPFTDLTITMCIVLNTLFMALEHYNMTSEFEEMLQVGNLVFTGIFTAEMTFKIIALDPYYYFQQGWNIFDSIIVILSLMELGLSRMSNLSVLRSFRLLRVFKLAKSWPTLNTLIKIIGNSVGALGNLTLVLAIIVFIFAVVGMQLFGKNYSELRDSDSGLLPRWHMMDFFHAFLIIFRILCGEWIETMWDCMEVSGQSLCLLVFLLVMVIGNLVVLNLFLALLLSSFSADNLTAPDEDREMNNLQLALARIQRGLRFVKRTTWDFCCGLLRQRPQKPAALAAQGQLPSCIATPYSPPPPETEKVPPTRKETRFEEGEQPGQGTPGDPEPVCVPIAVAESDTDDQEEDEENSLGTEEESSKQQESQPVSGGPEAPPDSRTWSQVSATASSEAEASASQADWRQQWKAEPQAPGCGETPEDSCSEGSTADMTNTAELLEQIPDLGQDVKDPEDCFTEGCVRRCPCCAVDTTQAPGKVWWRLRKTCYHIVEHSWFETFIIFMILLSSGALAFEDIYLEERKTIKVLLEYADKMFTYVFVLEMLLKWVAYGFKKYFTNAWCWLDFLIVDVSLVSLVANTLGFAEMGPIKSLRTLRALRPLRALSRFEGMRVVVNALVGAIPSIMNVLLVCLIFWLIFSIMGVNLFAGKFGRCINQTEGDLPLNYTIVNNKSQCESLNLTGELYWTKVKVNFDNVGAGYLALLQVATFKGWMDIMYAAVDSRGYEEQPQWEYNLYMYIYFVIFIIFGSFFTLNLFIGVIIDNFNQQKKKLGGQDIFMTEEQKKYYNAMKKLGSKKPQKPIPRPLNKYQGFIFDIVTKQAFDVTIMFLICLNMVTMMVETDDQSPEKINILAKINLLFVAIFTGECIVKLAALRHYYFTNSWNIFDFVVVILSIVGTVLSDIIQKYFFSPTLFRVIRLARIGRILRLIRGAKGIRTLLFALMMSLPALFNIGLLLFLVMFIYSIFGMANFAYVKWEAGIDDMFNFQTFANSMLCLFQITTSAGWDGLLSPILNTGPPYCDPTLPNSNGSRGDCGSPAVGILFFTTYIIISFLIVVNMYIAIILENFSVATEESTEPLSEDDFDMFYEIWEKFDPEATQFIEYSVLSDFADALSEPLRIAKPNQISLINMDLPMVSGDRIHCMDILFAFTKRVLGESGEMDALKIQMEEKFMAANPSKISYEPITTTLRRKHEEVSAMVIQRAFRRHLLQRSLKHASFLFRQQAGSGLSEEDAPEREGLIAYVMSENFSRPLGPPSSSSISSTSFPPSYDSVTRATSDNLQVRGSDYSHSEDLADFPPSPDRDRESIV
The experiment in a line: PatchXpress automated patch clamp, depolarized-state protocol. Type of data set: cell-based. As to conditions: HEK 293 cells. The protocol: as §1, §2
NaV1.5: Compound potency was measured in a depolarized-state protocol where the holding potential for each cell was set to V0.5inact – 20 mV. The pulse protocol consisted of an 8 sec prepulse to V0.5inact + 7 mV, followed by a 2 ms hyperpolarization to −120 mV and a 10 ms test pulse to −10 mV. First, vehicle (0.3% DMSO) was added to establish a baseline measurement. Once baseline was established, a test compound was added. Cells were exposed to compound for 5 minutes at V0.5inact – 20 mV. Compound washout was performed to measure the recovery of the sodium currents from inhibition.
as §3, §4

Data set [4] in a line: Plasma exposure in phrenic nerve activity assay. It counts as in vivo. As to conditions: rat, 30 mg/kg; for concentration at 15 min / concentration at 30 min: CD, plasma, intravenous. From the text:
(§5) For in vivo CVR and phrenic nerve activity studies, all raw signals were amplified via general purposed biological amplifier (filter settings DC – 3-5 KhZ) then digitized, calibrated and collected at a minimum of 500 Hz (1000 Hz for ECG and 2000 Hz for cardiac electrograms, and 10 KHz for phrenic nerve activity) using Notocord-HEM data acquisition and analysis software. The raw signal was filtered following acquisition with a bandpass filter set to 200–800 Hz). Vehicle (100% dimethylformamdide, DMF) or compound formulated in the vehicle was administered as a 30-minute IV infusion at 0.0167 μL/g body weight/min. Doses were selected to achieve unbound plasma concentrations in range of measured Nav1.6 IC50 values when infused at 0.0167uL/g body weight/min based on measured rat clearance, plasma protein binding and Nav1.6 IC50. Exposure in rats was determined in separate pharmacokinetics experiments where compounds were administered via IV dosing.

The subject of data set [5] is phrenic nerve. Nature of the data set: Rat phrenic nerve firing assay. The following applies: rat in vivo, measured at 30 minutes. The procedure: To determine direct effects on phrenic nerve activity, male CD rats were anesthetized and instrumented as described above for the CV/R assay. In addition, an incision was made in the ventral neck area and the right phrenic nerve identified anatomically and isolated via blunt dissection. The phrenic nerve was placed over a high impedance bipolar hook electrode and the nerve covered with mineral oil to prevent desiccation. Animals were mechanically ventilated via a tracheotomy (~10 mL/kg, 40–70 breaths/min, titrated individually to stabilize phrenic activity) following neuromuscular block (pancuronium 0.5–1 mg/kg, iv) and bilateral vagotomy to better define test agent effects on phrenic nerve activity. Anesthesia was verified repeatedly following pancuronium administration by testing the BP/HR response to noxious stimuli. Spontaneous electrical activity was continuously recorded and then later rectified and averaged to calculate frequency, width, peak height of bursts, and magnitude. Magnitude of the activity was calculated by taking the absolute value of the raw signal and then averaging that signal over 50 ms increments. The resulting average signal was then converted to magnitude by subtracting the […] for each phrenic burst complex. The resulting magnitude values were then averaged over 1 minute increments to result in the graphs shown. Figure S1 in the Supplemental Information illustrates this analytical procedure.
as §5

Data set [6] in a line: Permeability (Papp, passive diffusion). It counts as in vitro ADME.
Data set [7] has as its target Pgp (Homo sapiens, UniProt P08183). Nature of the data set: Permeability BA/AB ratio (Pgp transport). As to conditions: not told. Type of data set: in vitro ADME.
[8] abbreviates: 10 mg/kg, 10 mg/kg, read-out: Total [plasma].
The mark [9] stands for this setting: 10 mg/kg, 10 mg/kg, read-out: Unbound [plasma].
Setting [10] is: male, 30 mg/kg, 30 mg/kg, read-out: Total [plasma].
Where [11] appears, read: male, 30 mg/kg, 30 mg/kg, read-out: Unbound [plasma].
[12] abbreviates: 14 mg/kg, 14 mg/kg, read-out: Total [plasma].
[13] abbreviates: 14 mg/kg, 14 mg/kg, read-out: Unbound [plasma].
Where [14] appears, read: male, 7 mg/kg, 7 mg/kg, read-out: Total [plasma].
Setting [15] is: male, 7 mg/kg, 7 mg/kg, read-out: Unbound [plasma].
Where [16] appears, read: 1 mg/kg, 1 mg/kg, read-out: Total [plasma].
The mark [17] stands for this setting: 1 mg/kg, 1 mg/kg, read-out: Unbound [plasma].

The values below come from paper PMC9578445, “Association of respiratory failure with inhibition of NaV1.6 in the phrenic nerve” (Channels, 2022).

Where only a bound is given, the exact number is not on record here.

Sequence of Nav1.6 (Q9UQD0 whole entry): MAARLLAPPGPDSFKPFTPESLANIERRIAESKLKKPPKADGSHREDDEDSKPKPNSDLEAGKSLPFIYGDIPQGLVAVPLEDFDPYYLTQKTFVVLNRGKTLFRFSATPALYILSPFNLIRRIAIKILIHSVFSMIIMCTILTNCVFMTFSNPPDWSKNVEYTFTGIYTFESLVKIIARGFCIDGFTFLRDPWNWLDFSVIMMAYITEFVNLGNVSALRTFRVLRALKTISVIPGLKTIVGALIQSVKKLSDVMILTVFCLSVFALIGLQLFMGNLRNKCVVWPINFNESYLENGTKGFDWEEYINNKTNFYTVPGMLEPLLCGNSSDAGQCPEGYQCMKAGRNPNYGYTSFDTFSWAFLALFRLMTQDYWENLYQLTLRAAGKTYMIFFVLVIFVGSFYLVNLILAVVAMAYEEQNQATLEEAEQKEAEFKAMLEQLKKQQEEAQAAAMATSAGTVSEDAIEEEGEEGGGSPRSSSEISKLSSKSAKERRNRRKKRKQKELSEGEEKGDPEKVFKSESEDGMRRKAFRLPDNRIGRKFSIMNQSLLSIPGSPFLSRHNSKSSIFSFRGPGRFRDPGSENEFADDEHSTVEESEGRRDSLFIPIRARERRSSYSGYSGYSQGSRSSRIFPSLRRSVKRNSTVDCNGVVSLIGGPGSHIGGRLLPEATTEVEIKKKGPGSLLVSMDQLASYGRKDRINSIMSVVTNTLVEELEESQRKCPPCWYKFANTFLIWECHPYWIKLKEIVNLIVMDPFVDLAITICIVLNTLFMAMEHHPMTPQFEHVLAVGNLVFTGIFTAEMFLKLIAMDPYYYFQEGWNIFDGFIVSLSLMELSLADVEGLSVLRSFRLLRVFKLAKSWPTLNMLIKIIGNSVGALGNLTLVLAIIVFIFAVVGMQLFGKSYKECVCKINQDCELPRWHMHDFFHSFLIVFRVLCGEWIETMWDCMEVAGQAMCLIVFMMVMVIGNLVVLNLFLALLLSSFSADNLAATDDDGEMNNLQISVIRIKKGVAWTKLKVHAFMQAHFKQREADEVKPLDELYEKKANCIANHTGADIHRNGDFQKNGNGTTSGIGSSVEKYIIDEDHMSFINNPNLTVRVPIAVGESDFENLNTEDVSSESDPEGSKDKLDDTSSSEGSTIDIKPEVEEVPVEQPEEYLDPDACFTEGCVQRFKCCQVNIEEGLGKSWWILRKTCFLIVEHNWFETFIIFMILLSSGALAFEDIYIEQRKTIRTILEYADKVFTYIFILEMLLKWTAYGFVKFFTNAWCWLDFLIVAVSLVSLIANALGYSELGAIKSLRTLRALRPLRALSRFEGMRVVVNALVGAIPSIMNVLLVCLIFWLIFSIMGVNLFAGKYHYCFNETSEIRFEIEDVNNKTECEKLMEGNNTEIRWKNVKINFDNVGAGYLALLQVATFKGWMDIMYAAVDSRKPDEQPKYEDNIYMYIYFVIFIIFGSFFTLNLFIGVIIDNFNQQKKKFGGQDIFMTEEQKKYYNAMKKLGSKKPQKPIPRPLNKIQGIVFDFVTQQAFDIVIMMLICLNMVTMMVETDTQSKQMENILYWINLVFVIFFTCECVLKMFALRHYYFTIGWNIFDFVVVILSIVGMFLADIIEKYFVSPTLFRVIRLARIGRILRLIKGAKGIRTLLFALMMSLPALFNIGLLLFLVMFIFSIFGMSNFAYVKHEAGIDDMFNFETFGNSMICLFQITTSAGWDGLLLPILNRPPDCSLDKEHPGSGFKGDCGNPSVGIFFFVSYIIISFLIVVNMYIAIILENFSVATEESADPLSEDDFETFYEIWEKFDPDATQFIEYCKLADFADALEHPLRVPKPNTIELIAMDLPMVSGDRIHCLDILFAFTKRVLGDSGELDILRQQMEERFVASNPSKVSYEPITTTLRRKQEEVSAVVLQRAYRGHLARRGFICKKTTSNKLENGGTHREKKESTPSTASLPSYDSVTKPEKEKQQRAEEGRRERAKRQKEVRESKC

As for `C[C@H](c1cccc2c1CNCC2)n1c(=O)oc2cc(S(=O)(=O)Nc3ncns3)ccc21` [SSCI-3], the concentration at 15 min came out at 32.1 ± 2 µM in data set [1] (setting [8]); 3.8 ± 0.2 µM in data set [1] (setting [9]); 108 ± 4.1 µM in data set [1] (setting [10]); 12.7 ± 0.5 µM in data set [1] (setting [11]); 32.1 ± 3.4 µM in data set [4] (read-out: Total [plasma]); 3.78 ± 0.4 µM in data set [4] (read-out: Unbound [plasma]). In addition, the concentration at 30 min worked out at 43.5 ± 1.8 µM in data set [1] (setting [8]) and 5.1 ± 0.2 µM in data set [1] (setting [9]). In addition, the “unbound plasma concentration just prior to death” value in data set [1] (rat CV/R assay) came to 20.2 µM. In addition, the “Total [plasma]” value is 171.2 ± 10.2a μM in data set [1] (30 mg/kg, 20–21 min) and 43.549 ± 3.116 µM in data set [4] (22–30 min). In addition, the “Unbound [plasma]” value in data set [1] (30 mg/kg, 20–21 min) is 20.2 ± 1.2a μM; in data set [4] (22–30 min), 5.138 ± 0.36 µM. Further, the IC50 (commonly the concentration needed to halve the response being measured) in data set [2] was 1.11 µM; in data set [3], more than 30 µM. In data set [5], the “percent decrease in the magnitude of the phrenic nerve signal” value is 74.2%. Also, in data set [6], the Papp is 1.716 10e-6cm/s. Also, the efflux ratio (as a rule, the permeability from basolateral to apical divided by that in the opposite direction, in the common usage) in data set [7] is approximately 1.03.

Take `O=S(=O)(Nc1nccs1)c1cc(Cl)c(NCCCCNC[C@H]2CCCN2)cc1F` [SSCI-1]: the concentration at 15 min in data set [1] (setting [12]) came to 88.3 ± 5.6 µM; in data set [1] (setting [13]), 5.9 ± 0.4 µM; in data set [1] (setting [14]) it was 54.4 ± 3.2 µM; in data set [1] (setting [15]), 3.6 ± 0.2 µM; in data set [1] (setting [10]) it was 230 ± 12 µM; in data set [1] (setting [11]), 15.4 ± 0.8 µM. Further, the concentration at 30 min stood at 104 ± 5.2 µM in data set [1] (setting [12]); 7 ± 0.3 µM in data set [1] (setting [13]); 76.7 ± 4.1 µM in data set [1] (setting [14]); 5.1 ± 0.3 µM in data set [1] (setting [15]); 252 ± 4 µM in data set [1] (setting [10]); 16.9 ± 0.3 µM in data set [1] (setting [11]). Also, the values for the concentration at 30 min in data set [4] (read-out: Total [plasma]) and in data set [4] (read-out: Unbound [plasma]) were 236 ± 110 µM and 15.8 ± 7.37 µM, respectively. The unbound plasma exposure in data set [1] (rat CV/R assay, no mortality) was 16.9 µM. The IC50 in data set [2] and in data set [3] was more than 30 µM in each case. In addition, the “percent decrease in the magnitude of the phrenic nerve signal” value in data set [5] is recorded as “did not show any decrease”. Besides, the Papp in data set [6] was 1.027 10e-6cm/s. In addition, the efflux ratio in data set [7] was approximately 1.1.

As to `COc1ccc(CCC(c2cccc3c2CNCC3)n2c(=O)oc3cc(S(=O)(=O)Nc4ncns4)c(F)cc32)cc1` (stereo not drawn) [SSCI-6], in data set [1] (setting [16]), the concentration at 15 min was 1.4 ± 0.2 µM and the concentration at 30 min is 1.5 µM. Further, in data set [1] (setting [17]), the concentration at 15 min is 0.025 ± 0.004 µM and the concentration at 30 min stood at 0.027 µM. The “unbound plasma concentration just prior to death” value in data set [1] (rat CV/R assay) is 0.05 µM. For the same molecule, in data set [1] (1 mg/kg, 20–23 min), the “Total [plasma]” value stood at 2.8a μM and the “Unbound [plasma]” value came out at 0.050a μM. Further, in data set [2], the “fold more potent at inhibiting NaV1.6 channels” value is on record as “approximately 10 fold” and the IC50 came to 0.023 µM. The molecule further showed an IC50 in data set [3] of more than 30 µM.
